Here are results for one molecule from US11850256B2, “Small molecule-mediated restoration of airway surface physiology in human cystic fibrosis lung epithelia” (The Board of Trustees of the University of Illinois, priority 2016, dated 2023).

SMILES strings stand for the structures. “Also recorded” adds a separate entry of the source.

Assay [1] concerns non-CF primary human lung epithelia. In words: ASL pH in non-CF (control) primary human lung epithelia. In kind it is cell-based. Conditions: apical. On the procedure:
Airway surface liquid (ASL) pH assay. ASL pH was studied using an established fluorescent dye assay using the Dextran, SNARF®-1, 70,000 MW ratiometric dye (Thermo Fisher D3304). Mature, differentiated CuFi-1 (ATCC CRL-4013) epithelial monolayers were grown on Corning Costar 0.4 μm Transwell Clear Polyester Membrane cell culture inserts (Corning 3470). CuFi epithelia were treated with perfluorinated hydrocarbon (PFC) vehicle, AmB, AmB:Chol or Chol and incubated for the time course of the experiment at 37° C. On the day of imaging, 100 μL of a suspension of SNARF-dextran in PFC was added to the apical side of the monolayers. Monolayers were imaged 2 hours after dye addition. The monolayers were placed on 100 μL of Ultroser G media on a 10 mm glass bottom Fluorodish for imaging (World Precision Instruments). Five images per membrane were taken on a Zeiss LSM 880 confocal microscope at 40× water immersion. These images were analyzed using ImageJ to determine the green to red ratio of each image. Solutions of known pH were used to calibrate pH detection using this system.
Non-CF (control) and CF primary human lung epithelia were prepared and maintained in vitro as previously described. Pezzulo A A et al. (2012) Nature 487: 109-113. […]

The subject of the next assay is CuFi-1 monolayers. Put plainly: Ussing chamber response to forskolin/IBMX CFTR activation in CuFi-1 monolayers. In kind it is cell-based, human. The settings on record: after 48 hr treatment. On the procedure:
After observing this decrease of efficacy with increasing dose, AmB was pre-complexed with cholesterol to mitigate its potentially disruptive sterol binding activity, following the mechanistic model laid out in previous studies. Gray K C et al. (2012) Proc Natl Acad Sci USA 109(7): 2234-2239; Anderson T M et al. (2014) Nat Chem Biol 10(5): 400-406. The activity of an AmB:cholesterol complex was tested, and this complex was able to extend the effective dose of ASL pH rescue out to 100 μM (FIG. 21). After 48 hr treatment with AmB, CuFi-1 monolayers were evaluated in an Ussing chamber.

Assay [2] is described as follows: 13C NMR-based bicarbonate release assay in liposomes. On the procedure: In some embodiments, a small molecule or a complex can permeabilize the apical membrane of differentiated human lung epithelia to bicarbonate. A series of natural and synthetic small molecules reported previously to permeabilize liposomes, cells, and/or nasal epithelia of mice to anions were tested for the capacity to increase short circuit current across CuFi-1 epithelial monolayers using an Ussing chamber. […] The capacity for AmB to transport bicarbonate was tested using an adapted ^13C NMR-based assay in cholesterol-containing POPC liposomes.

The nature of assay [3]: Proton release (1:100 AmB:lipid vs DMSO). The settings on record: FIG. 18. On the procedure: FIG. 18 depicts the effect of 1:100 AmB:lipid (circles) compared to DMSO (triangles) on proton release.
To directly probe whether AmB-mediated bicarbonate transport causes the ASL pH increase, pH-stat experiments were performed in large NuLi and CuFi-1 epithelial monolayers either in the presence of bicarbonate or in bicarbonate-free solution. Cho, D Y, et al., (2009) Am J Rhinol Allergy 23, e10-13; Cho, D Y, et al., (2011) Int Forum Allergy Rhinol 1, 123-127. […] To address the potential role of proton absorption in the alkalization of the ASL, these experiments were repeated in bicarbonate-free buffer.

Assay [4] relates to CF primary human lung epithelia. In words: ASL viscosity in CF primary human lung epithelia. The assay is classed as cell-based. Conditions: 2 μM, 48 h; vs untreated CF epithelia. Here is the method: Non-CF (control) and CF primary human lung epithelia were prepared and maintained in vitro as previously described. Pezzulo A A et al. (2012) Nature 487: 109-113. These cells were treated with AmB at a final concentration of 2 μM for 48 h, and then ASL viscosity was measured.

Assay [5] shares this test system. Put plainly: ASL bacterial killing in CF primary human lung epithelia (S. aureus). The assay is classed as cell-based. Conditions: 2 μM. On the procedure: CF primary human lung epithelia were prepared and maintained in vitro as previously described. Pezzulo A A et al. (2012) Nature 487: 109-113. These cells were treated with AmB or C35deOAmB at a final concentration of 2 μM for 1 minute, then washed and maintained in culture for 48 h, and then bacterial killing was measured.
Increased ASL viscosity, a downstream effect of ASL pH acidification, contributes to the inability to clear mucus and bacteria from the lung. […] ASL pH is also closely correlated to the ability of antimicrobial proteins in the ASL to enact bacterial killing. To connect the observed AmB-mediated increase in ASL pH with a meaningful increase in ASL bacterial killing, AmB treated epithelia were tested against a human strain of S. aureus. Pezzulo A A et al. (2012) Nature 487: 109-113.

The subject of assay [6] is CuFi-4 (ΔF508/G551D) monolayers. Put plainly: 14C bicarbonate transport in CuFi-4 monolayers. The assay is classed as cell-based, human. On the procedure:
^14C bicarbonate was administered to the basolateral side of monolayers to trace ion movement through the cells over time. Epithelial monolayers grown from the patient-derived lung epithelial cell line CuFi-1 (ΔF508/ΔF508) were also studied. The genotype ΔF508/ΔF508 represents about 46.5% of all CF patients and is considered a relatively severe deficiency. Permeabilization of the apical membrane to bicarbonate anions with AmB could correct the flux abnormality resulting from the loss of CFTR. Upon treatment with 2 μM AmB for 48 hours, a decrease in intracellular ^14C bicarbonate and an increase in ASL ^14C bicarbonate compared to CuFi-1 alone was observed (FIGS. 15A and 15B).
Ivacaftor is a clinically approved and effective drug to treat cystic fibrosis, and it was used as a control in some of the experiments. Following literature precedent for in vitro ivacaftor administration, CuFi-4 (ΔF508/G551D) epithelia were treated with forskolin (Fsk) to promote phosphorylation of CFTR and ivacaftor (Iva) to potentiate conductance through the channel. E. H. Chang et al., Int Forum Allergy Rhinol 5, 178-181 (2015); F. Van Goor et al. (2009) Proc. Natl. Acad. Sci. 106, 18825-18830. […] This provides evidence that while both ivacaftor and AmB increase bicarbonate transport, AmB is operating through a genotype-agnostic mechanism.

Assay [7] relates to protein ion channel-deficient yeast (trk1Δtrk2Δ). The settings on record: cited from earlier work.
The next assay deals with yeast. Conditions: cited from earlier work.

As to `C[C@@H]1[C@H](O)[C@@H](C)/C=C/C=C/C=C/C=C/C=C/C=C/C=C/[C@H](O[C@@H]2O[C@H](C)[C@@H](O)[C@H](N)[C@@H]2O)C[C@@H]2O[C@](O)(C[C@@H](O)C[C@@H](O)[C@H](O)CC[C@@H](O)C[C@@H](O)CC(=O)O[C@H]1C)C[C@H](O)[C@H]2C(=O)O` [AmB, amphotericin B], in assay [1], the “effect on ASL pH of non-CF epithelia” value was “absence of effect; also recorded: no effect”. In the assay on CuFi-1 monolayers, the “increase in short circuit current in response to forskolin/IBMX CFTR activation” value is reported as “neither untreated nor AmB-treated CuFi-1 monolayers had an increase in short circuit current; also recorded: no increase in short circuit current”. The “release of 13C-labelled bicarbonate from liposomes” value in assay [2] is “Robust and rapid release”. Moreover, the proton transport result in assay [3] is “able to transport protons”. In addition, in [4], the ASL viscosity entry is given as “significantly decreased ASL viscosity”. Besides, in assay [5] (killing measured after 48 h, control about 25 percent), the “percent killing (ASL bacterial killing)” value is recorded as “about 40%”. Also, in assay [5] (vs control), the “effect on ASL bacterial killing” value is “increased ASL bacterial killing”. For the same molecule, the “ASL 14C bicarbonate” value in assay [6] is “significantly increase; also recorded: increase bicarbonate in ASL”. In assay [7], the yeast growth rescue entry was “restored to normal phenotype (growth); also recorded: restore growth”. Also, the “fungicidal activity / toxicity to yeast” value in the assay on yeast is “highly toxic to yeast”.
